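Interpolation was linear, between the two tested concentrations surrounding the appropriate level; five concentrations were tested over 48 hours in 96-well plates. The concentration for 50% growth inhibition is given as GI50.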 Calls of active or inactive are those of the source. Rule as the data show it: active = GI50 up to about 1.1 µM and inactive = higher.
How the values were obtained:
Test in all cases: NCI-60 cell line screen, 48 h
[1] = tested on: ACHN
[2] = tested on: EKVX
[3] = tested on: HCT-116
[4] = tested on: HOP-62
[5] = tested on: HOP-92
[6] = tested on: K562
[7] = tested on: LOX IMVI
[8] = tested on: MOLT-4
[9] = tested on: NCI-H460
[10] = tested on: SF-295
[11] = tested on: SK-MEL-28
[12] = tested on: SK-MEL-5
[13] = tested on: SNB-19
[14] = tested on: SNB-75
[15] = tested on: UACC-62
[16] = tested on: UO-31
[17] = tested on: MCF7
[18] = tested on: MDA-MB-435
[19] = tested on: MDA-N
[20] = tested on: Hs-578T

Measured: GI50

O=C1c2ccccc2C(=O)c2c(NCCNCCO)ccc(O)c21
inactive: [1] 2.73 µM | [2] 3.98 µM | [3] 1.81 µM | [4] 3.21 µM | [5] 3.21 µM | [6] 4.86 µM | [7] 1.51 µM | [8] 1.37 µM | [9] 1.44 µM | [10] 4.35 µM | [11] 2.88 µM | [12] 3.18 µM | [13] 2.89 µM | [14] 3.63 µM | [15] 3.35 µM | [16] 1.49 µM

C/C=C/C=C/[C@H]1Cc2cc(O)cc(O)c2O1
inactive: [1] 52.5 µM | [2] 55.5 µM | [3] 81.3 µM | [4] > 100 µM | [5] > 100 µM | [6] 37.2 µM | [7] 47.9 µM | [8] 31.8 µM | [9] 44.1 µM | [10] 57.3 µM | [11] > 100 µM | [12] 49.7 µM | [13] 80.7 µM | [14] > 100 µM | [15] 22.9 µM | [16] 29.4 µM

COc1ccc(/N=N/c2c(N)nn(C)c2N)cc1
inactive: [1] > 100 µM | [2] > 100 µM | [3] > 100 µM | [4] > 100 µM | [5] > 100 µM | [6] > 100 µM | [7] > 100 µM | [8] 82.8 µM | [9] > 100 µM | [10] > 100 µM | [11] > 100 µM | [12] > 100 µM | [13] > 100 µM | [14] 51.6 µM | [15] > 100 µM | [16] > 100 µM

N#CC(C#N)/N=C/c1ccncc1
inactive: [1] > 100 µM | [2] > 100 µM | [3] > 100 µM | [4] > 100 µM | [5] > 100 µM | [6] > 100 µM | [7] > 100 µM | [17] > 100 µM | [18] > 100 µM | [19] > 100 µM | [8] > 100 µM | [10] > 100 µM | [11] > 100 µM | [12] > 100 µM | [14] > 100 µM | [15] > 100 µM

CC(C)CC[C@H](O)[C@@H](C)[C@H]1[C@@H](OC2OC(C)C(O)C(O)C2O)C[C@H]2[C@@H]3CC=C4C[C@@H](O)CC[C@]4(C)[C@H]3[C@@H](O)C[C@]12C (stereo not given in full)
active: [3] 0.258 µM | [4] 0.301 µM | [5] 0.312 µM | [20] 0.121 µM | [6] 0.235 µM | [7] 0.889 µM | [17] 0.656 µM | [8] 0.0904 µM | [9] 0.241 µM | [10] 0.0402 µM | [11] 0.506 µM | [15] 0.538 µM
inactive: [1] > 27.7 µM | [2] 11.4 µM | [18] 1.55 µM | [12] 3.35 µM | [13] > 100 µM | [14] 5.4 µM | [16] 1.77 µM

O=C1C=CC2(C=C1)C[C@H](NC(=O)OCc1ccccc1)C(=O)O2
inactive: [1] 15.8 µM | [2] 12.9 µM | [3] 16 µM | [4] > 54.2 µM | [5] 16.3 µM | [20] 40.6 µM | [6] 3.08 µM | [7] 9.93 µM | [17] 11.2 µM | [19] 14.8 µM | [8] 1.8 µM | [9] 24.3 µM | [10] 26.1 µM | [11] 13 µM | [12] 21.9 µM | [13] 99.5 µM | [14] 25.1 µM | [15] 17.3 µM | [16] 20.2 µM

CCCC(Sc1ccccc1)P(=O)(c1ccccc1)c1ccccc1 (stereo not given)
inactive: [1] 19.8 µM | [2] 24 µM | [3] 31.3 µM | [4] 46.6 µM | [5] 21.8 µM | [6] 29.9 µM | [7] 35.6 µM | [8] 20.6 µM | [9] 29.8 µM | [10] 27.8 µM | [11] 42.1 µM | [12] 25.4 µM | [13] > 100 µM | [14] 28.6 µM | [15] 15.1 µM | [16] > 100 µM

Cn1c2cc(O)cc(O)c2c(=O)c2c([N+](=O)[O-])cccc21
inactive: [1] > 100 µM | [2] > 100 µM | [3] > 100 µM | [4] > 100 µM | [5] > 100 µM | [6] > 100 µM | [7] > 100 µM | [8] > 100 µM | [9] > 100 µM | [10] > 100 µM | [11] > 100 µM | [12] > 100 µM | [13] > 100 µM | [14] > 100 µM | [15] > 100 µM | [16] > 100 µM

Cc1ccc(C(=O)/C=C/N2CCN(c3cccc(C(F)(F)F)c3)CC2)cc1
inactive: [1] 23.9 µM | [2] 18.7 µM | [3] 16.7 µM | [4] 20.7 µM | [5] 27.1 µM | [20] 24 µM | [6] 18.7 µM | [17] 18 µM | [18] 16.9 µM | [8] 15.1 µM | [9] 21.7 µM | [10] 17.5 µM | [11] 19.7 µM | [12] 14.9 µM | [13] 30.1 µM | [14] 16.9 µM | [15] 19.3 µM | [16] 17.5 µM

COc1ccc2[nH]c3c(c2c1)[C@H](C)C[C@@H]1C(=O)N(c2ccccc2)C(=O)[C@H]31
inactive: [1] 37.8 µM | [2] 23.9 µM | [3] 20.3 µM | [4] 24 µM | [5] 14.9 µM | [6] 46 µM | [7] 25.2 µM | [8] 20.6 µM | [9] 26.2 µM | [10] 26 µM | [11] > 100 µM | [12] 39.4 µM | [13] 29.4 µM | [14] 21.4 µM | [15] 44.1 µM | [16] 36.2 µM

CC(C)CS(=O)(=O)/C(=C(\c1ccc(Br)cc1)S(=O)(=O)CC(C)C)c1ccc(Br)cc1
inactive: [1] > 100 µM | [2] > 100 µM | [3] > 100 µM | [4] > 100 µM | [5] > 100 µM | [6] > 100 µM | [7] > 100 µM | [8] > 100 µM | [9] > 100 µM | [10] > 100 µM | [11] > 100 µM | [12] 1.41 µM | [13] > 100 µM | [14] 38.3 µM | [15] > 100 µM | [16] > 100 µM

CCOC(=O)NC(=O)c1cn(CCCOC(=O)CCCCCCCCCCC(=O)OCCCn2cc(C(=O)NC(=O)OCC)c(=O)n(C)c2=O)c(=O)n(C)c1=O
inactive: [1] > 100 µM | [2] > 100 µM | [3] > 100 µM | [4] > 100 µM | [5] 67.8 µM | [6] > 100 µM | [7] > 100 µM | [8] > 100 µM | [9] > 100 µM | [10] > 100 µM | [11] > 100 µM | [12] > 100 µM | [13] > 100 µM | [14] 47.9 µM | [15] > 100 µM | [16] > 100 µM

C1CSC[C@H]2COC[C@@H](CSCCS1)S2
inactive: [2] > 100 µM | [3] > 100 µM | [4] > 100 µM | [5] > 100 µM | [6] > 100 µM | [7] > 100 µM | [17] > 100 µM | [18] > 100 µM | [19] > 100 µM | [8] > 100 µM | [9] > 100 µM | [10] > 100 µM | [11] > 100 µM | [12] > 100 µM | [13] > 100 µM | [14] 56 µM | [16] > 100 µM

CCOC(=O)/C(I)=C/c1cc(OC)c(OC)c(OC)c1
inactive: [1] 7.14 µM | [2] 15.8 µM | [3] 3.26 µM | [4] 26.9 µM | [5] 11.6 µM | [6] 3.86 µM | [7] 1.75 µM | [8] 7.01 µM | [9] 40.6 µM | [10] 9.91 µM | [11] 1.41 µM | [12] 7.83 µM | [13] 7.64 µM | [14] 28.8 µM | [15] 4.5 µM | [16] 5.79 µM

CCCCCC(/C=C/[C@@H]1[C@H]2CC(=O)O[C@H]2C[C@H]1N1CCOCC1)OC1CCCO1 (stereo not given in full)
inactive: [1] > 100 µM | [2] > 100 µM | [3] > 100 µM | [4] > 100 µM | [5] > 100 µM | [6] > 100 µM | [7] > 100 µM | [8] > 100 µM | [9] > 100 µM | [10] > 100 µM | [11] > 100 µM | [12] > 100 µM | [13] > 100 µM | [14] > 100 µM | [15] > 100 µM | [16] > 100 µM

O=C(C#Cc1cnc(O)nc1O)c1ccccc1
inactive: [1] 14.5 µM | [2] 12 µM | [3] 7 µM | [4] 18.5 µM | [5] 13.2 µM | [6] 2.98 µM | [7] 4.42 µM | [8] 2.48 µM | [9] 14.1 µM | [10] 35.9 µM | [11] 10.9 µM | [12] 12.7 µM | [13] 17.3 µM | [14] 18.2 µM | [15] 7.28 µM | [16] 17.4 µM
